# System: HSV
# Assay: in vivo effect: survival of intranasally HSV-infected mice
# Design: species or system strain BALB/cABom
# Conditions: Mus musculus; female BALB/cABom mice, intranasal infection 5×10^4 pfu; treatment from 6 hours after infection, 3 times a day for 5 days; from graphs of survival; read-out: ED50 (50% of the animals survive at this dose)
# Description: 6-week old female mice, strain BALB/cABom, were purchased from a commerical breeder (Bomholtgard Breeding and Research Centre Ltd.).
# The animals were anaesthetized with diethyl ether (Merck) in a sealed glass vessel. 50 μl of a dilution of the virus stock (infectious dose 5×10^4 pfu) were introduced into the nose of the anaesthetized animals with an Eppendorf pipette. This infectious dose leads to death of 90-100% of the animals after an average of between 5 and 8 days due to a generalized infection with prominent respiratory and central nervous symptoms.
# 6 hours after the infection, the animals were treated with doses of 0.1-100 mg/kg of body weight 3 times a day at 7.00 h, 14.00 h and 19 h over a period of 5 days. The substances were dissolved in DMSO and resuspended in Tylose/PBS (Hoechst) (final concentration 1.5% DMSO, 0.5% Tylose in PBS).
# After the last administration, the animals were observed further and the times of death were recorded.
row,Structure (SMILES),ED50 [mg/kg]
1,CNS(=O)(=O)c1sc(N(C)C(=O)Nc2ccc(N3CCOCC3)cc2)nc1C [Example 43],30 to 40

# System: not given
# Assay: not given
# Conditions: not given
row,melting point,Structure (SMILES)
1,159 °C,CCOc1ccc(NC(=O)N(CCOC)c2nc(C)c(S(=O)(=O)NC)s2)cc1
2,232 °C,CCn1c(=O)oc2cc(NC(=O)N(C)c3nc(Cl)c(S(=O)(=O)N(C)C)s3)ccc21
3,225 °C,CN(C(=O)Nc1ccc(-n2ccnn2)cc1)c1nc(Cl)c(S(=O)(=O)N(C)C)s1
4,158 °C,CCOc1ccc(NC(=O)N(CCOc2ccccc2)c2nc(C)c(S(=O)(=O)NC)s2)cc1
5,168 °C,CCOc1ccc(NC(=O)N(C)c2nc(C)c(S(=O)(=O)N(C)C)s2)cc1
6,165 °C,Cc1nc(N(CC2CCCO2)C(=O)Nc2ccc(-c3ccccc3)cc2)sc1S(N)(=O)=O (stereo not shown)
7,153 to 154 °C,CCOC(=O)N1CC2CCN(c3ccc(NC(=O)N(C)c4nc(S(=O)(=O)NC)c(C)s4)cc3)C2C1 (stereo not shown)
8,194 °C,Cc1nc(N(C)C(=O)Nc2ccc(-n3cccc3)cc2)sc1S(=O)(=O)NC1CC1
9,164 °C,CCCC(=O)Nc1cc(N2CCCC2)ccc1NC(=O)N(C)c1nc(C)c(S(=O)(=O)N(C)C)s1
10,157 to 160 °C (dec.),CNS(=O)(=O)c1sc(N(C)C(=O)Nc2ccc(N3CCCCC3)cc2)nc1C
11,163 °C,CCCOc1ccc(NC(=O)N(CCOC)c2nc(CC)c(S(N)(=O)=O)s2)cc1
12,140 °C,CCCCOc1ccc(NC(=O)N(C)c2nc(Cl)c(S(=O)(=O)N(C)C)s2)cc1
13,201 °C,COCCN(C(=O)Nc1ccc(N2CCOCC2)cc1)c1nc(C)c(S(N)(=O)=O)s1
14,228 °C,CNS(=O)(=O)c1sc(N(C)C(=O)Nc2ccc(N3CCOCC3)cc2)nc1Cl
15,240 °C,CN(C)C(=O)Nc1ccc(NC(=O)N(C)c2nc(Cl)c(S(=O)(=O)N(C)C)s2)cc1
16,199 °C,CCc1nc(N(C)C(=O)Nc2ccc(N3CCOCC3)cc2)sc1S(=O)(=O)N(C)C

row,melting point,Structure (SMILES)
1,161 °C,CCCN(C(=O)Nc1ccc(N2CCOCC2)cc1)c1nc(C)c(S(=O)(=O)N(C)C)s1
2,180 °C,CCOc1ccc(NC(=O)N(Cc2cccnc2)c2nc(C)c(S(=O)(=O)N(C)C)s2)cc1
3,170 °C,CCOc1ccc(NC(=O)N(CC2COc3ccccc3O2)c2nc(C)c(S(=O)(=O)NC3CC3)s2)cc1 (stereo not shown)
4,162 °C,CCOc1ccc(NC(=O)N(C)c2nc(C)c(S(=O)(=O)NCc3ccco3)s2)cc1
5,158 °C,CCOc1ccc(NC(=O)N(CC2CCCN2CC)c2nc(C)c(S(=O)(=O)N(C)C)s2)cc1 (stereo not shown)
6,197 °C,CN(C(=O)Nc1ccc(N2CCOCC2)cc1)c1nc(Cl)c(S(=O)(=O)N(C)C)s1 [3]
7,210 °C,CN(C(=O)Nc1ccc(N2CCOCC2)cc1)c1nc(Cl)c(S(=O)(=O)N(C)C)s1 [9]
8,171 °C,Cc1nc(N(C)C(=O)Nc2ccc(N3CCOCC3)cc2)sc1S(=O)(=O)N(C)C [67]
9,161 °C,CCOc1ccc(NC(=O)N(CCCNC(=O)OC(C)(C)C)c2nc(C)c(S(=O)(=O)NCC(F)(F)F)s2)cc1 [135]
10,150 °C,CCOc1ccc(NC(=O)N(CCCNC(=O)OC(C)(C)C)c2nc(C)c(S(=O)(=O)NCC(F)(F)F)s2)cc1 [136]
11,167 °C,COCCN(C(=O)Nc1ccc(-c2ccccc2)cc1)c1nc(C)c(S(N)(=O)=O)s1 [151]
12,185 to 187 °C (dec.),CC(=O)Nc1cc(N2CCCC2)ccc1NC(=O)N(C)c1nc(C)c(S(=O)(=O)N(C)C)s1 [168]
13,162 to 163 °C,CC(=O)Nc1cc(N2CCCC2)ccc1NC(=O)N(C)c1nc(C)c(S(=O)(=O)N(C)C)s1 [169]
14,193 °C,COCCN(C(=O)Nc1ccc(-c2ccccc2)cc1)c1nc(C)c(S(N)(=O)=O)s1 [195]
15,210 °C,CNS(=O)(=O)c1sc(N(C)C(=O)Nc2ccc(-c3ccccc3)cc2)nc1C [Example 123]

# System: HSV-2 G
# Assay: anti-HSV screening test (cytopathogenic effect, fluorescein diacetate fluorescence readout) in Vero cells
# Type: cell-based
# Conditions: Human alphaherpesvirus 2, Vero, read-out: IC50 HSV-2 G/Vero
# Description: (§1) HSV (HSV-1 Walki, HSV-1F or HSV-2G) was replicated on Vero cells (ATCC CCL-81) under the following conditions: the cells were grown in M199 medium (5% fetal calf serum, 2 mM glutamine, 100 IU/ml penicillin, 100 μg/ml streptomycin) in cell culture bottles at 37° C. and 5% CO2. The cells were split 1:4 on each of two occasions each week. For the infection, the medium was removed, and the cells were washed with Hank's solution, detached with 0.05% trypsin, 0.02% EDTA (Seromed L2143) and incubated at a density of 4×10^5 cells per ml under the conditions mentioned above for 24 hours. The medium was then removed, and the virus solution was added at an m.o.i. of <0.05 in a volume of 2 ml per 175 cm^2 of surface area. After incubation under the conditions mentioned for one hour, the medium was made up to a volume of 50 ml per 175 cm^2 bottle. […] The virus was released by freezing (−80° C.) and thawing (37° C.) twice. The cell debris was removed by centrifugation (300 g, 10 min, 4° C.) and the supernatant was frozen in aliquots at −80° C.
# (§2) The anti-HSV effect was determined in a screening test system in 96-well microtitre plates with the assistance of various cell lines of neuronal, lymphoid and epithelial origin, such as, for example, Vero (African green monkey kidney cell line), MEF (murine embryonic fibroblasts), HELF (human embryonic fibroblasts), NT2 (human neuronal cell line) or Jurkat (human lymphoid T-cell line).
# (§3) The substances dissolved (50 mM) in DMSO (dimethyl sulphoxide) are investigated on microtitre plates (for example 96-well MTP) in final concentrations of 250-0.5 μM (micromolar) in duplicate determinations (4 substances/plate). For potent substances, the dilutions are continued over several plates as far as 0.5 pM (picomolar). Toxic and cytostatic effects of the substance are also recorded. After the appropriate dilutions of the substance (1:2) on the microtitre plate, a suspension of cells (1×10^4 cells per well) such as, for example, Vero cells in M199 (medium 199) with 5% fetal calf serum, 2 mM glutamine and optionally 100 IU/ml penicillin and 100 μg/ml streptomycin or MEF cells in EMEM (Eagle's minimum essential medium) with 10% fetal calf serum, 2 mM glutamine and optionally 100 IU/ml penicillin and 100 μg/ml streptomycin, or HELF cells in EMEM with 10% fetal calf serum, 2 mM glutamine and optionally 100 IU/ml penicillin and 100 μg/ml streptomycin, or NT2 and Jurkat cells in DMEM ([…] glucose plus pyridoxine) with 10% fetal calf serum, 2 mM glutamine, 1 mM sodium pyruvate, nonessential amino acids and optionally 100 IU/ml penicillin and 100 μg/ml streptomycin is put in each well, and the cells in the relevant wells are infected with an appropriate amount of virus (HSV-1 F or HSV-2 G with an m.o.i (multiplicity of infection) of 0.0025 for HELF, Vero and MEF cells and with an m.o.i of 0.1 for NT2 and Jurkat cells). The plates are then incubated at 37° C. in a CO2 incubator (5% CO2) for several days. […] The plates are initially evaluated optically using a microscope and then analysed with a fluorescent dye. For this purpose, the cell culture supernatant is aspirated out of all the wells of the MTP and charged with 200 μl of PBS washing solution.
row,Structure (SMILES),IC50 [nM]
1,CNS(=O)(=O)c1sc(N(C)C(=O)Nc2ccc(N3CCOCC3)cc2)nc1C [Example 43],1500

# Same assay, conditions: Human alphaherpesvirus 2; Vero cells infected with HSV-2 G, m.o.i. 0.0025; half-maximum fluorescence intensity in relation to the uninfected cell control; read-out: IC50 HSV-2 G/Vero
row,Structure (SMILES),IC50 [nM]
1,"CCOc1ccc(NC(=O)N(CCN(C)C)c2nc(C)c(S(=O)(=O)NC)s2)cc1 [Example 2, 2-{[2-(Dimethylamino)ethyl][(4-ethoxyanilino)carbonyl]amino}-N,4-dimethyl-1,3-thiazole-5-sulphonamide]",1000
2,CNS(=O)(=O)c1sc(N(C)C(=O)Nc2ccc(N3CCCC3)cc2)nc1C [Example 94],50
3,CNS(=O)(=O)c1sc(N(C)C(=O)Nc2ccc(-c3ccccc3)cc2)nc1C [Example 123],5

# System: HSV-1 F
# Assay: as above
# Type: cell-based
# Conditions: Human alphaherpesvirus 1, Vero, read-out: IC50 HSV-1 F/Vero
# Description: as §1, §2, §3
row,Structure (SMILES),IC50 [nM]
1,CNS(=O)(=O)c1sc(N(C)C(=O)Nc2ccc(N3CCOCC3)cc2)nc1C [Example 43],500

# Same assay, conditions: Human alphaherpesvirus 1; Vero cells infected with HSV-1 F, m.o.i. 0.0025; half-maximum fluorescence intensity in relation to the uninfected cell control; read-out: IC50 HSV-1 F/Vero
row,Structure (SMILES),IC50 [nM]
1,"CCOc1ccc(NC(=O)N(CCN(C)C)c2nc(C)c(S(=O)(=O)NC)s2)cc1 [Example 2, 2-{[2-(Dimethylamino)ethyl][(4-ethoxyanilino)carbonyl]amino}-N,4-dimethyl-1,3-thiazole-5-sulphonamide]",200
2,CNS(=O)(=O)c1sc(N(C)C(=O)Nc2ccc(N3CCCC3)cc2)nc1C [Example 94],20
3,CNS(=O)(=O)c1sc(N(C)C(=O)Nc2ccc(-c3ccccc3)cc2)nc1C [Example 123],1

# From patent publication US6500817B1, “Thiazolyl urea derivatives and their utilization as antiviral agents” (Bayer Aktiengesellschaft, priority 1999, dated 2002)
